Assay [1] has as its target T1, Ubiquitin-conjugating enzyme E2 N (Homo sapiens, UniProt P61088).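 Note: Dose-response confirmation in a TR-FRET assay detecting UBC13-driven polyubiquitin chain formation, inhibition measured.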
T1 sequence (P61088 whole entry): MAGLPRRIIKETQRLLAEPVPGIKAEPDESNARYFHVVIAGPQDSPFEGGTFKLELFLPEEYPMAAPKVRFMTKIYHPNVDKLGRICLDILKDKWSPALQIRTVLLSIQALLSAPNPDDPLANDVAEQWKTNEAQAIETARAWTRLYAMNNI
The format is functional.

Assay [2] in a line: growth suppression of PTEN-null colon cells, dose response, cell-based, HCT116 PTEN knockout (AID 1047).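 Note: HCT116 colon tumor cells with PTEN knocked out; cells exposed to compound for 60 hours before readout; potency for loss of cell viability measured by luminescence.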 It is filed as functional.
Assay [3] is described as follows: growth suppression of beta-catenin-knockout colon cells, dose response, cell-based, HCT116, human colon tumor (AID 1045).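 Note: HCT116 colon tumor cells with beta catenin knocked out; cells exposed to compound for 60 hours.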 The format is functional.
A short description of assay [4]: Luminescence Cell-Based Dose Retest to Confirm Inhibitors of Cancer Stem Cells. [Related pubchem assays (depositor defined):AID2717, AID2721]. The format is functional. As to conditions: Homo sapiens.
A further assay relates to INS1. Description: beta cell apoptosis inhibitors, cytokine rescue, dose response, luminescence, retest (AID 449756).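 Note: cell death triggered by IL-1 beta plus TNF-alpha plus IFN-gamma mixture; protective hits raise ATP signal compared with cytokine alone wells.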 It is filed as functional, cell-based. As to conditions: Rattus norvegicus.
Another assay addresses Cytochrome P450 3A4 (Homo sapiens, UniProt P08684). As to conditions: Potency.
For a further assay, the target named is Large T antigen (Simian virus 40, UniProt P03070). It is filed as functional, Betapolyomavirus macacae.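 Note: Confirmatory-stage PubChem screen for compounds that inhibit SV40 T antigen.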
In assay [5] the target is FAD-linked sulfhydryl oxidase ALR (Homo sapiens, UniProt P55789). Description: inhibitors of human ALR sulfhydryl oxidase, dose response, biochemical, H2O2 detection, luminescence, cherry-pick (AID 493248).
Another assay in a line: cells. It is filed as functional.
For assay [6], the target named is Glyceraldehyde-3-phosphate dehydrogenase (Homo sapiens, UniProt P04406).
Assay [7] in a line: LGR2 antagonists, dose response, cell-based, HEK293, CRE-luciferase reporter, cherry pick, set 2 (AID 743343).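 Note: transfected cells were stimulated with diluted bursicon conditioned medium after compound addition.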 The format is functional.
Assay [8] can be described thus: MC4R antagonists, dose response, counter-screen for LGR2 antagonist project, cell-based, plate reader, cherry pick (AID 743444).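 Note: transfected HEK 293 cells stimulated with alpha-MSH peptide; potency of inhibitors of the alpha-MSH evoked signal.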 It is filed as functional. (In general: Counterscreens check selectivity or assay interference.)
A short description of assay [9]: HEK293 cell cytotoxicity, dose response, cytotoxicity control, plate reader, cherry-picked samples (AID 743446). It is filed as functional, cell-based.
A short description of assay [10]: A549 cell cytotoxicity, dose response, cytotoxicity control, plate reader, cherry-pick, antagonist series (AID 743412). It is filed as functional, cell-based.
Assay [11] in a line: HepG2 cell cytotoxicity, dose response, cytotoxicity control, plate reader, cherry-pick, antagonist series (AID 743416). It is filed as functional, cell-based.
Assay [12] in a line: ZM109 Env clade C HIV-1 fusion inhibitors, dose response, HeLa effector, CEM target cells, luciferase, cherry-pick (AID 652058). It is filed as functional, cell-based.
Assay [13] in a line: P. falciparum Dd2 growth inhibitors, dose response, SYBR Green, cherry-picked samples (AID 1159567). It is filed as functional, cell-based.
The nature of assay [14]: microbe, parasite or virus in culture. The format is functional. As to conditions: Mycobacterium tuberculosis.
In assay [15] the test system is Streptococcus sp. 'group A'. Put plainly: growth inhibition of control SK(-) GAS strain, dose response, counter-screen for streptokinase expression inhibitor project, luminescence, kanamycin, BacTiterGlo, confirmation (AID 1900). The format is functional, organism-based.
The target in another assay is T2, Streptokinase A (Streptococcus pyogenes serotype M1, UniProt P10520).
T2 sequence (P10520 whole entry): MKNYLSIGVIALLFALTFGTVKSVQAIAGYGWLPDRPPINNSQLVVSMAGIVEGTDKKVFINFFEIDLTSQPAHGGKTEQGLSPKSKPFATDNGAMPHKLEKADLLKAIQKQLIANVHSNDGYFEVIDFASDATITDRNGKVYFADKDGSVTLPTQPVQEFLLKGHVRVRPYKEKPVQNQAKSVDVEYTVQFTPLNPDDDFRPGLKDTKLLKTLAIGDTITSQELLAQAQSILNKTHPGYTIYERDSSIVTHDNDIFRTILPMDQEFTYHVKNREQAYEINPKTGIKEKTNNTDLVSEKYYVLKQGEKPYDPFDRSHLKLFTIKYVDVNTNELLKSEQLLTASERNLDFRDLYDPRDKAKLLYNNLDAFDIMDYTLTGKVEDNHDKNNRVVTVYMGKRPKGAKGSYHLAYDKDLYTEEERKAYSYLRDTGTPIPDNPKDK
Put plainly: S. pyogenes streptokinase expression inhibitors, potency, dose response, plasminogen activation absorbance, OD405 (AID 1914).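 Note: secreted streptokinase activity via plasminogen activation per viability signal from cell pellet.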 The format is functional, Streptococcus pyogenes M1 GAS.

The next assay has as its system Streptococcus. Description: Group A Streptococcus viability loss, dose response, counter-screen for streptokinase expression inhibitor project, luminescence, BacTiterGlo (AID 1915).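 Note: potency for reduction of bacterial viability or growth.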 The format is functional, organism-based.
Assay [16] has as its target T3, Heat shock factor protein 1 (Mus musculus, UniProt P38532).
T3 sequence (P38532 whole entry): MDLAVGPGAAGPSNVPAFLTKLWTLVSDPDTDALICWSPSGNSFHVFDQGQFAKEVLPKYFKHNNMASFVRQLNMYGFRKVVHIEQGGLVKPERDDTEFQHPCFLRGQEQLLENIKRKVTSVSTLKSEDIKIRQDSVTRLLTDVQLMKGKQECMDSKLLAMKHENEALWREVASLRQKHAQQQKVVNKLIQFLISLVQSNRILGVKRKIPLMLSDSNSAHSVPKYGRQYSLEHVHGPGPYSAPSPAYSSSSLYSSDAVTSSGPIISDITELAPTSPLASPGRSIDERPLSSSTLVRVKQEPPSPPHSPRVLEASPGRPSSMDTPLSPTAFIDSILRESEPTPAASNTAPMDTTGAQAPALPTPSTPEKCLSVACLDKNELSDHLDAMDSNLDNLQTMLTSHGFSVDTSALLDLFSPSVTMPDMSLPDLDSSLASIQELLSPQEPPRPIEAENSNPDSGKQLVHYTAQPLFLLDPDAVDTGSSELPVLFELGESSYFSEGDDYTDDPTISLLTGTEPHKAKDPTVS
Put plainly: HSF1 potentiators in luciferase reporter cells, confirmation, cell-based, NIH3T3, luminescence, dose retest (AID 435004).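 Note: stress induced by proteasome inhibitor MG132 added 30 min after compound; luciferase reporter driven by HSF1 response element in NIH3T3 cells; actives raise luminescence as potentiators of the MG132 stress response.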 The format is functional.

The values below come from ChEMBL document CHEMBL1201862, “PubChem BioAssay data set” (2004).

The IC50 is the concentration that inhibits the measured activity by half. One may read the EC50 as the concentration needed to bring the measured effect to its halfway point. The term AC50 denotes the concentration at which the activity in the assay is half-maximal.

Values joined by “and” are separate entries in the source; they are usually repeats but may differ in a detail not shown here. Equal entries are not always repeated. Active and inactive are the calls of the source.

Chain of Large T antigen (P03070 whole entry): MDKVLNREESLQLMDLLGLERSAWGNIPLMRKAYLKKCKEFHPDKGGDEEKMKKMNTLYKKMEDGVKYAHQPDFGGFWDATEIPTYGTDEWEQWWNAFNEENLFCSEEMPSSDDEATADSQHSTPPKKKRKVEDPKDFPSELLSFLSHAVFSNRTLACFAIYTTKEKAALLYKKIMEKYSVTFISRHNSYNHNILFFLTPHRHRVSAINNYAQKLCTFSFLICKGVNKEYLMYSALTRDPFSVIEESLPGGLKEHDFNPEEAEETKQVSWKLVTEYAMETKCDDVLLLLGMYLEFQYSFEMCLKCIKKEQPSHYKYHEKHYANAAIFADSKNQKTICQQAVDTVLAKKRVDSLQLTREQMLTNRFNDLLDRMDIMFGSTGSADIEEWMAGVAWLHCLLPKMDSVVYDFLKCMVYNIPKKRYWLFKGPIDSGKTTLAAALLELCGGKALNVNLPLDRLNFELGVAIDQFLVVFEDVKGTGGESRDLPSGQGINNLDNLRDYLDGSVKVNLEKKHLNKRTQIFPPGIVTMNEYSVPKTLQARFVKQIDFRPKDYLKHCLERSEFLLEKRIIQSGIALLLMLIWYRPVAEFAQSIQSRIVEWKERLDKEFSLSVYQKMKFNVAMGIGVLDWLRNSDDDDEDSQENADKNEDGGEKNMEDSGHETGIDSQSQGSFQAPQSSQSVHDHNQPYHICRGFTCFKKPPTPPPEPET
Chain of Cytochrome P450 3A4 (P08684 whole entry): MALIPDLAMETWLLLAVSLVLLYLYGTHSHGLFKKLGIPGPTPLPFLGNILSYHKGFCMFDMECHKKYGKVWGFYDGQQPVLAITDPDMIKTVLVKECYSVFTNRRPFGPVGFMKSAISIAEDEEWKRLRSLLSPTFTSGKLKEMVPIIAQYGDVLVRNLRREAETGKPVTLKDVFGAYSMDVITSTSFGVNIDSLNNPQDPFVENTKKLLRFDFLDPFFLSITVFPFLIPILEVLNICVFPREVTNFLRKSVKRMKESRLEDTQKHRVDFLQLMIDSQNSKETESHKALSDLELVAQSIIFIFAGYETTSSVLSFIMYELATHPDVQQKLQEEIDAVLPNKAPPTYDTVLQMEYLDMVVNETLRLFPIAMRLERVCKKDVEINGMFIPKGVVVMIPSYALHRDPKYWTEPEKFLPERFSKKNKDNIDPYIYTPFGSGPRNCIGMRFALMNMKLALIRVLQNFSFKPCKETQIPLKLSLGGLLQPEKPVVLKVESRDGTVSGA
Chain of FAD-linked sulfhydryl oxidase ALR (P55789 whole entry): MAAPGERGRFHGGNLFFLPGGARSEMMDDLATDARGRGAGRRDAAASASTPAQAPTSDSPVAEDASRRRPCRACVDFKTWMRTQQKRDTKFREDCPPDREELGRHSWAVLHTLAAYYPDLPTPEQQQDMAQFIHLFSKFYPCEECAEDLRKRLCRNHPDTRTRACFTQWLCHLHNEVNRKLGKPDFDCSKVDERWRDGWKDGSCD
Chain of Glyceraldehyde-3-phosphate dehydrogenase (P04406 whole entry): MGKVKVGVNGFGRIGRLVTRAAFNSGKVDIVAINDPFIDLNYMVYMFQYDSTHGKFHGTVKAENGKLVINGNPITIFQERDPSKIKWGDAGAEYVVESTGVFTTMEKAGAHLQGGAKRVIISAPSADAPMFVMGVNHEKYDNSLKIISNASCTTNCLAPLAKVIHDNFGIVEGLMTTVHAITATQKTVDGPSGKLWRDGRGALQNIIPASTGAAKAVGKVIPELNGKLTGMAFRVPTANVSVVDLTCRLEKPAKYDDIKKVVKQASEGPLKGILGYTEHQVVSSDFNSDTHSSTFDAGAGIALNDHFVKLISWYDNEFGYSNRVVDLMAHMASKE

For the compound `Cc1ccc2[nH]c(O)c(/N=N/C(=N)S)c2c1`, in [1], the IC50 is > 20 µM (inactive). `CCCCCCSc1cc(-c2nc3cc(C)ccn3c2NC2CCCCC2)ccc1OC`: the IC50 in assay [1] is > 20 µM (inactive). `C=CCn1c(SCC(=O)c2[nH]c(C)c(C(=O)OCC)c2C)nc2scc(-c3ccc(OC)c(OC)c3)c2c1=O`: the EC50 is 6.55 µM (active) in [2] and 7.26 µM (active) in assay [3]. The AC50 in [4] was 2.05 µM (active); with INS1, 3.37 µM (active). For the compound `O=C1OC(C2=CCCCC2)=NC12CC2`, at Cytochrome P450 3A4, the AC50 was 5.01 µM (inconclusive). As for `N#CC1=C(S)N(c2ccccc2)C(c2ccc(-c3ccc(Cl)c(Cl)c3)o2)NC1=O` (stereo unspecified), the IC50 at Large T antigen was 62.7 µM (active). As to `O=C(c1ccc2c(c1)OCO2)N1CCN=C1SCc1ccccc1`, in assay [5], the AC50 is > 100 µM (inactive). For the compound `CCC1=C2CC[C@H]3C(=O)N(CC)C(=O)[C@H]3[C@H]2[C@@]2(C)/C(=N/CC(=O)OC)OC(=O)N2C1=O`, the AC50 at Cytochrome P450 3A4 is 15.8 µM (inconclusive).

With `C[C@@]12CCC(O)C[C@H]1CCC1C2CC[C@]2(C)C(=O)CCC12` (stereo partly specified), on Cytochrome P450 3A4, the AC50 was 15.8 µM (inconclusive). Consider `Clc1ccc(-c2nc3cnccn3c2NC2CCCC2)cc1`, for which, in assay [5], the AC50 is 4.85 µM (active). On to `Cc1ccc(-n2nnnc2Sc2ccc(S(=O)(=O)NCCN(C)C)cc2[N+](=O)[O-])cc1`, for which the EC50 is 2.26 µM (active) in assay [2] and 2.05 µM (active) in assay [3]. Also, the AC50 in assay [4] was 2.59 µM (active).

With `COc1ccc(Nc2c3c(nc4ccccc24)CCCC3)cc1OC`, the AC50 in assay [5] was 0.511 µM (active). On the same count and under the same terms, next, `COc1ccccc1N1CCN(S(=O)(=O)c2ccccc2)CC1`: 7.31 µM (active).

In the case of `CC1Cc2ccccc2N1C(=O)COC(=O)c1ccc(Cl)nc1` (stereo unspecified), the IC50 in the assay “cells” is 39.8 µM (active). On to `O=C(O)CCC(=O)Nc1ccc(O)c(C(=O)O)c1`, for which, in [6], the IC50 is > 100 µM (not active). On the same count and under the same terms, as for `O=C(CSc1nc2ccccc2s1)NO`, the figure is > 100 µM (not active).

For `CN(C)c1ccc(NC(=O)c2cccc(N3C(=O)CCC3=O)c2)cc1`, the IC50 on Large T antigen was 9.21 µM (active). In the case of `COC(=O)CNC(=O)C1(CC(C)C)C=CCN1C(=O)c1ccccc1` (stereo unspecified), the AC50 on Cytochrome P450 3A4 was 20 µM (inconclusive). In the case of `Cc1cc(Cl)ccc1OC(C)C(=O)Nc1ccc([N+](=O)[O-])cn1` (stereo unspecified), the IC50 in “cells” was 38 µM (active). For the compound `Cc1c(C)c2ccc(OCC(=O)Nc3nccs3)cc2oc1=O`, the AC50 in [7] was 4.84 µM (active); in assay [8] it was 4.38 µM (active); in assay [9], > 52 µM (inactive). Regarding `Cc1cc(C)cc(NC(=O)CCc2ccc(C)o2)c1`, in the assay “cells”, the IC50 is 36.7 µM (active).

For `O=C(Nc1nc2ccccc2s1)c1ccc2c(c1)OCO2`, the AC50 in assay [10] was > 52 µM (inactive); in [11], > 52 µM (inactive); in assay [7], 3.49 µM (active); in assay [8], 4.59 µM (active); in assay [9], 31.5 µM (active). As for `Nc1ccc(C(=O)Nc2cccc(N)c2)cc1`, the AC50 in [5] was 1.96 µM (active).

Consider `CN1CCN(C2=C(Cl)C(=O)N(c3ccc(Cl)nc3)C2=O)CC1`, for which, in assay [6], the IC50 is > 50 µM (inconclusive). With `O=C(Nc1nnc(-c2cc(Cl)ccc2Cl)o1)C1=COCCO1`, the IC50 in the assay “cells” was 11.6 µM (active). With `CC(C)NC(=O)N(C)C[C@@H]1Oc2ccc(NC(=O)C3CC3)cc2CC(=O)N([C@@H](C)CO)C[C@@H]1C`, in [12], the AC50 is 64.5 µM (active). With `COc1ccc(S(=O)(=O)Nc2ccc3c(c2)C(=O)N([C@@H](C)CO)C[C@H](C)[C@@H](CN(C)C(=O)Nc2cccc4ccccc24)OCCCC[C@H](C)O3)cc1`, the AC50 in [10] was 22.8 µM (active); in assay [11] it was > 52 µM (inactive); in assay [8], 8.72 µM (active); in [9] it was > 52 µM (inactive). `C/C(CC(=O)Nc1ccc(N(C)C)cc1)=N\NC(=O)c1cnccn1`: the IC50 on Large T antigen was 17.5 µM (active). As for `CC(C)(C)[S@+]([O-])N1Cc2cc(C(=O)NC3CCC3)nc(-c3cccc(Br)c3)c2[C@@H]1CCO`, in [13], the AC50 is 7.47 µM (active). Turning to `COc1ccc(-c2ccccc2[C@H]2[C@@H](CO)N(C(=O)C3CCOCC3)[C@H]2C#N)cc1`, in assay [13], the AC50 was > 39 µM (inactive). Take `CO[C@@H]1CN(C)C(=O)c2ccc(NC(=O)Nc3cccc(F)c3)cc2OC[C@H](C)NC[C@H]1C`: the AC50 in assay [13] is 7.62 µM (active).

`CC1=NN(c2ccccc2)C(=O)C1C(=O)c1ccccc1` (stereo unspecified): in assay [14], the CC50 is > 40 µM (active). Besides, the IC50 in “cells” was 42.1 µM (active). As for `OC(CNCc1ccco1)Cn1c2ccc(Br)cc2c2cc(Br)ccc21` (stereo unspecified), the EC50 is 4.22 µM (active) in assay [15]; > 150 µM (not active) on Streptokinase A; 9.13 µM (active) in assay [2]; 8.59 µM (active) in [3]; 13.7 µM (active) with Streptococcus; > 260 µM (inactive) in assay [16]. In addition, the AC50 in assay [4] is 3 µM (active). Turning to `COc1ccc(OC)c(S(=O)(=O)Nc2cccnc2)c1`, the IC50 in [6] is reported as > 100 µM (not active). As to `COc1cc(OC)c2c(=O)c(-c3ccccc3)c(C)oc2c1OC` [2-METHYL-5,7,8-TRIMETHOXYISOFLAVONE], at Cytochrome P450 3A4, the AC50 is 20 µM (inconclusive). In the case of `COc1cccc2c1cc([N+](=O)[O-])c1c(C(=O)O)cc3c(c12)OCO3` [ARISTOLOCHIC ACID], the half-maximal activity concentration (AC50) on Cytochrome P450 3A4 is 10 µM (inconclusive) and 63.1 nM (inconclusive).
